How the values were obtained:
T. gondii tachyzoites = assay: [3H]-uracil uptake assay of parasite growth inhibition in infected HFF cell monolayers; type: cell-based, Toxoplasma gondii; conditions: infected HFF cell monolayers, 36-48 hours; read-out: IC50 against T. gondii in the uracil uptake assay
From the text: (§1) Host cells and parasite cultures—RH strain or RH ΔHXGPRT strain tachyzoites of T. gondii were maintained by serial passage in confluent monolayers of human foreskin fibroblasts (“HFF”) as described (Roos, D. S. et al., 1994, Methods Cell Biol. 45:27-63). A modified [^3H]-uracil uptake assay (Pfefferkorn, E. R. and Pfefferkorn, L. C., 1977, J. Protozool. 24:449-453) adapted for use in 96-well scintillation plates (Cytostar-T, Amersham; Piscataway, N.J.) was used to measure parasite growth inhibition. Each well, previously seeded with HFF cells, was inoculated with T. gondii tachyzoites (2×10^4) in 200 μl of growth media containing 2 μCi [5,6]-^3H-uracil (Perkin-Elmer NEN; Boston, Mass.) and serially diluted compound. Following incubation at 37° C. for 36-48 hours, tritium-incorporation into host cell monolayers was directly counted in a microplate scintillation counter (MicroBeta, PerkinElmer-Wallac).

EtCKIα = EtCKIα (Eimeria tenella, UniProt Q6QNL9); assay: Casein kinase assay, partially purified native EtCKIα; type: biochemical; conditions: native enzyme
Chain of EtCKIα (Q6QNL9 whole entry): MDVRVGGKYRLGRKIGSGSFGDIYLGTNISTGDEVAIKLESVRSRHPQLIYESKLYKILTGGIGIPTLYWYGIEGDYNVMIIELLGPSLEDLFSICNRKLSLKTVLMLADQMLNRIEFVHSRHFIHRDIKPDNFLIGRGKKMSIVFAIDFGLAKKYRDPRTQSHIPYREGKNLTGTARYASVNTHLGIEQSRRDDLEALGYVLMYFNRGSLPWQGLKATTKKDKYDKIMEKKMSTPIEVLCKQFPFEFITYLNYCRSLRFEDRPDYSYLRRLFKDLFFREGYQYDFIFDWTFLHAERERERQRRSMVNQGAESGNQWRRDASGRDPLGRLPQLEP
Experimental: (§2) Protein kinase assays—Casein kinase activity was assayed essentially as described (Donald, R. G. K. et al., 2002, supra) using 96-well phosphocellulose plates (MAPH-NOB, Millipore; Billerica, Mass.) to capture ^33P-phosphorylated peptide or casein substrates. Kinase reactions were carried out in 40 μl volumes containing 25 mM Hepes, pH 7.4, 10 mM MgCl2, 20 mM β-glycerophosphate, 1 mM DTT, 250 μM substrate, 1 mg/mL BSA, 2 μM ATP, and 0.01 μM [γ-^33P]ATP (Perkin-Elmer, 3000 Ci/mmol). The reactions were initiated by the addition of enzyme and incubated at room temperature for 60 min. Casein (5% solution), partially dephosphorylated α-casein and β-casein were obtained from Sigma.
(§3) A variety of commercially available peptide substrates were evaluated. From Calbiochem (San Diego, Calif.): CKI substrate (RRKDLHDDEEDEAMSITA; SEQ ID NO:13); CKII substrate (RRADDSDDDDD; SEQ ID NO:14); Syntide-2 substrate (PLARTLSVAGLPGKK; SEQ ID NO:15); CaM kinase II substrate (281-291) (MHKNETVECLK; SEQ ID NO:16). From Promega: CKI substrate (DDDEESITRR; SEQ ID NO:17) and kemptide (LRRASLG; SEQ ID NO:18). From New England Biolabs (Beverly, Mass.): CKI phosphopeptide substrate (KRRRALS(p)VASLPGL; SEQ ID NO:19), and CKII substrate (RRREEETEEE; SEQ ID NO:20). PKG assays were performed with kemptide as substrate and 10 μM cGMP. CDPK was assayed with Syntide-2 substrate and in the presence of 100 μM CaCl2.
Partial purification of native EtCKIα—The inability to stably express recombinant EtCKIα in T. gondii provided impetus to purify native enzyme from E. tenella parasites (slide 5). A lysate was prepared from 2×10^10 unsporulated oocysts using previously published procedures (Gurnett, A. M. et al., 2002, supra). The first two steps of the purification scheme used were essentially scaled-up from the method described for the purification of native TgCKIα. The lysate was subjected to preparative HiLoad Q anion-exchange chromatography and fractions eluted with a NaCl gradient (0-1 M NaCl). […]

TgCDPK1 = molecular target: T1, TgCDPK1 (Toxoplasma gondii, UniProt Q9BJF5); assay: CDPK assay with Syntide-2, T. gondii CDPK1; type: biochemical; conditions: 0.2 μM hymenialdisine or 1 μM purvalanol B; CKI phosphopeptide substrate
T1 construct: The TgCDPK1 open reading frame was amplified by PCR from a Toxoplasma cDNA library; made in house
T1 sequence (Q9BJF5 entry or part of it): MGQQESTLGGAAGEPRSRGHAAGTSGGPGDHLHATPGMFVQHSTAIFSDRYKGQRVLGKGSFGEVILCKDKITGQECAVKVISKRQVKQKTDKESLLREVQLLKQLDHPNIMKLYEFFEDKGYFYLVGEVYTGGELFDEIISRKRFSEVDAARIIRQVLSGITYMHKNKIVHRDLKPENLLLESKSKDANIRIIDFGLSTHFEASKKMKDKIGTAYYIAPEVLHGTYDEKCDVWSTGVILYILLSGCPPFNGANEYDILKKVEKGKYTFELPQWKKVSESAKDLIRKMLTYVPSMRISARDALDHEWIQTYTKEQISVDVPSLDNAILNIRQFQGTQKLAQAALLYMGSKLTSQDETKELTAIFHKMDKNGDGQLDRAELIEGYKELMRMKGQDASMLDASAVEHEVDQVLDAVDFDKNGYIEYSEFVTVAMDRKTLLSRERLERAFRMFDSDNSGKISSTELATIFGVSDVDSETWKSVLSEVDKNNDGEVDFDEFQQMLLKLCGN
Experimental: as §2, §3
Purification of recombinant TgCDPK1 and TgPKG—The TgCDPK1 open reading frame was amplified by PCR from a Toxoplasma cDNA library, using primers based on the published sequence (Kieschnick et al., 2001, supra): sense primer, […] (SEQ ID NO:44); and, antisense primer, […] (SEQ ID NO:45). A C-terminal FLAG epitope tag was appended to the TgCDPK1 open reading frame by an additional round of PCR amplification (KOD polymerase) and the resulting DNA fragment was sub-cloned into a tubulin promoter expression vector (Donald and Liberator, 2002, supra). […]

T. gondii = assay: Parasite growth inhibition, modified [3H]-uracil uptake assay in infected HFF cell monolayers; type: cell-based, Toxoplasma gondii; conditions: Toxoplasma gondii; uracil uptake assay, infected HFF cell monolayers; read-out: IC50
From the text: as §1
The only other CDK inhibitor with sub-μM activity against T. gondii was indirubin-3′-monoxime, which gave an IC50 value of 500 nM.

Compound: CC(C)[C@H](CO)Nc1nc(Nc2ccc(C(=O)O)c(Cl)c2)c2ncn(C(C)C)c2n1 [purvalanol B]
- IC50 (T. gondii tachyzoites): 260 nM
- activity against / sensitivity of EtCKIα (EtCKIα): good activity
- sensitivity of phosphopeptide kinase activity of fractions 14 and 15 (TgCDPK1) (TgCDPK1): partial sensitivity
- IC50 (T. gondii): 260 nM
